Literature values, collected in patent US20060286183A1, “Diet supplement for causing rapid weight loss, controlling appetite, managing stress, supporting relaxation, combating fatigue and supporting mental well-being” (priority 2005, published 2006).

Tests used:
[1] = animals
[2] = humans
[3] = tested on: 5-alpha-reductase
[4] = in vivo
[5] = not given; remark: listed apart in the source
[6] = during fatigue
[7] = rats
[8] = tested on: ATP; conditions: calorie restriction
[9] = lean and obese rats
[10] = molecular target: T1, catechol-O-methyl-transferase (COMT) (Homo sapiens, UniProt P21964)
T1 sequence (P21964 1-271): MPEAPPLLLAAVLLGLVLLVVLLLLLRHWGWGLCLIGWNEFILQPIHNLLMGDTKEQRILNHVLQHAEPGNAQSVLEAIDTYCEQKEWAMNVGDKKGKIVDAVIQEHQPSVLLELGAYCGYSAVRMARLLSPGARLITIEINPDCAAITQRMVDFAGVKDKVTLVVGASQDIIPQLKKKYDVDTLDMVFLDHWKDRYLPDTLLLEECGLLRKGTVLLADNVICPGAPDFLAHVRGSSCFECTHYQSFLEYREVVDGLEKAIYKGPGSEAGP

[11] = compared with vitamin C and E
[12] = molecular target: glutamate dehydrogenase (Homo sapiens, UniProt P00367)
[13] = during exercise, untrained men and women
[14] = molecular target: T2, ATP:citrate lyase (Homo sapiens, UniProt P53396)
T2 sequence (P53396 1-1101): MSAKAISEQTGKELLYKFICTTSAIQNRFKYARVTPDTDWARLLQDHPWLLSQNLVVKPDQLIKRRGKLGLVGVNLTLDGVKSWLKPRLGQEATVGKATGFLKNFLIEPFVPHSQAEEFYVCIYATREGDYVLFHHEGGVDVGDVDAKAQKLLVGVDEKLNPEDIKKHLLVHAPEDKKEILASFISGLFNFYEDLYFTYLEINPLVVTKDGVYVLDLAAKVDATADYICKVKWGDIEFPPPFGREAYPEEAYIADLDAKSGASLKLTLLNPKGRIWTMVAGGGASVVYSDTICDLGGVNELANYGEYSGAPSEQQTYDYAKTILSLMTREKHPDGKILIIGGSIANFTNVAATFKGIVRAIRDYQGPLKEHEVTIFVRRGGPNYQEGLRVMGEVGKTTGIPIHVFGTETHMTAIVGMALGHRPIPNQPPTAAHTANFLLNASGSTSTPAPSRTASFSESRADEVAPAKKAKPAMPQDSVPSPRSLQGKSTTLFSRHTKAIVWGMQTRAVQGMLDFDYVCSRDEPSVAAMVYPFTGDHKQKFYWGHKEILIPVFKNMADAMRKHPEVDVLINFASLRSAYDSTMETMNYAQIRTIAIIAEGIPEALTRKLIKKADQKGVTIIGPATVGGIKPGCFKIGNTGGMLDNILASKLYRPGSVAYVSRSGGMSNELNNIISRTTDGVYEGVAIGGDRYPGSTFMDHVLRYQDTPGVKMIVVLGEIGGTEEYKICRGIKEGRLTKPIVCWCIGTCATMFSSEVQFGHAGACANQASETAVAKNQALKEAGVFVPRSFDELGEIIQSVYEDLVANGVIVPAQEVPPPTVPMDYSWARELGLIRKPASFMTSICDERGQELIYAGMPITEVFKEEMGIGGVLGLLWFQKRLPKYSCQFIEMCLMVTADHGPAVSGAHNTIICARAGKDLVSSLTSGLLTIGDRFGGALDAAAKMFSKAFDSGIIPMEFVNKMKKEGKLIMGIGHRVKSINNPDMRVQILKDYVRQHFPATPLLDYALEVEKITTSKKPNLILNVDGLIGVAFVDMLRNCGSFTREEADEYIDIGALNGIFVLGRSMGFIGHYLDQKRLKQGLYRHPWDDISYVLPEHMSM

[15] = humans; remark: listed apart in the source
[16] = in vivo; remark: listed apart in the source
[17] = rats; remark: listed apart in the source
[18] = rat, administration of NOPE
[19] = obese rats
[20] = healthy women, three-day supplementation
[21] = patients with mild to moderate psychosyndromes such as dementia
[22] = elderly patients
[23] = stroke patients
[24] = tested on: forebrain ischemia; conditions: ischemia maintained for 10 minutes

Chain of glutamate dehydrogenase (P00367 54-558): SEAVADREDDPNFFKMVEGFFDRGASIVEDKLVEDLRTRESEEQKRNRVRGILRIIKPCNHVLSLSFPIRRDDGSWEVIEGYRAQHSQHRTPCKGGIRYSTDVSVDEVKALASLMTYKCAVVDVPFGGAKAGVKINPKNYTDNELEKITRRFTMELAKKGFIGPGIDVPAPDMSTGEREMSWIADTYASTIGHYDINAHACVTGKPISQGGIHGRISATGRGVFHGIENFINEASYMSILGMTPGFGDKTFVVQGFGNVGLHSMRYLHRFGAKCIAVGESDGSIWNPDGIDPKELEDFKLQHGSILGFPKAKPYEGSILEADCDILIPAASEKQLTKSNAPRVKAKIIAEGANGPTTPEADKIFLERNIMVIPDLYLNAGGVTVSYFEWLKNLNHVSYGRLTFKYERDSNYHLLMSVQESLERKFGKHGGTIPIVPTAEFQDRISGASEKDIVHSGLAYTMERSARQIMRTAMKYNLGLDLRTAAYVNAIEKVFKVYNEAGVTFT

Q: With `CC1=C(/C=C/C(C)=C/C=C/C(C)=C/C=C/C=C(C)/C=C/C=C(C)/C=C/C2=C(C)C(=O)[C@@H](O)CC2(C)C)C(C)(C)C[C@H](O)C1=O` [Astaxanthin] as the compound, how does the exercise-induced muscle damage [1] read?
A: attenuate exercise-induced muscle damage

Q: And the safety [2]?
A: safe

Q: And the 5-alpha-reductase inhibition [3]?
A: inhibiting 5-alpha-reductase

Q: For `[Cr]` [Chromium], which HDL cholesterol [4] is on record?
A: increase HDL

Q: And the lean mass (clinical)?
A: increase lean mass

Q: What about the body fat (combined with exercise) of the same compound?
A: reduce body fat

Q: For `N[C@@H](Cc1ccc(O)cc1)C(=O)O` [Tyrosine], which “mood and cognitive performance” value ([5]; periods of stress) is on record?
A: improve mood and cognitive performance

Q: What about the “blood pressure and cognition” value ([5]; under stress) of the same compound?
A: reduction in blood pressure in addition to cognitive improvement

Q: What about the mental performance [6] of the same compound?
A: improve

Q: Which results are given for `C/C=C(\C)C(=O)O[C@@H]1C[C@H]2[C@@H](CC=C3C[C@@H](O[C@H]4C[C@H](OC)[C@H](O[C@H]5C[C@H](OC)[C@H](O[C@@H]6O[C@H](C)[C@@H](O)[C@H](OC)[C@H]6O)[C@@H](C)O5)[C@@H](C)O4)CC[C@@]32C)[C@@]2(O)CC[C@H](C(C)=O)[C@@]12C` [Example P57]?
A: food intake [7]: reduce food intake; ATP [8]: countered the reduction in ATP normally expected from calorie restriction

Q: Which results are given for `O=C(O[C@@H]1Cc2c(O)cc(O)cc2O[C@@H]1c1cc(O)c(O)c(O)c1)c1cc(O)c(O)c(O)c1` [EGCG, (−)-Epigallocatechin-3-gallate]?
A: food intake, body weight, cholesterol and triglycerides [9]: effective at reducing food intake, body weight, cholesterol and triglycerides; COMT inhibition [10]: inhibitor; antioxidant activity [11]: greater than many well known and established antioxidants; glutamate dehydrogenase inhibition [12]: inhibitor of glutamate dehydrogenase

Q: For `O=C(O)CC(O)(C(=O)O)C(O)C(=O)O` (stereo not drawn) [HCA, Hydroxycitric acid], which fat oxidation [13] is on record?
A: increase fat oxidation during exercise

Q: What about the “ATP:citrate lyase inhibition” value [14] of the same compound?
A: competitive inhibitor

Q: What about the caloric intake [15] of the same compound?
A: reduce caloric intake

Q: What about the serotonin levels [16] of the same compound?
A: significantly increased

Q: What about the “fatty acid synthesis and appetite” value [17] of the same compound?
A: inhibit fatty acid synthesis and repress appetite

Q: What does the source list for N-olyl-phosphatidyl ethanolamine [NOPE]?
A: appetite and weight [18]: causes appetite suppression and subsequent weight loss; body weight [19]: lower body weight

Q: Which results are given for `CCOC(=O)C1=C[C@]2(CC)CCCN3CCc4c(n1c1ccccc41)[C@@H]32` [Vinpocetine]?
A: memory [20]: improvement in the memory; cognitive performance [21]: cognitive performance improved; improvement in chronic cerebral dysfunction [22]: significant improvement; cerebral blood flow [23]: increase cerebral blood flow; brain cell damage [24]: prevent brain cell damage
